Results published in paper PMC6230509 (Neuropharmacology, 2018).

Experiments:
5-HT1A = target: T1, 5-HT1A (Homo sapiens, UniProt P08908); test: NIMH PDSP radioligand competition binding, 5-HT1A
T1 sequence (P08908 1-422): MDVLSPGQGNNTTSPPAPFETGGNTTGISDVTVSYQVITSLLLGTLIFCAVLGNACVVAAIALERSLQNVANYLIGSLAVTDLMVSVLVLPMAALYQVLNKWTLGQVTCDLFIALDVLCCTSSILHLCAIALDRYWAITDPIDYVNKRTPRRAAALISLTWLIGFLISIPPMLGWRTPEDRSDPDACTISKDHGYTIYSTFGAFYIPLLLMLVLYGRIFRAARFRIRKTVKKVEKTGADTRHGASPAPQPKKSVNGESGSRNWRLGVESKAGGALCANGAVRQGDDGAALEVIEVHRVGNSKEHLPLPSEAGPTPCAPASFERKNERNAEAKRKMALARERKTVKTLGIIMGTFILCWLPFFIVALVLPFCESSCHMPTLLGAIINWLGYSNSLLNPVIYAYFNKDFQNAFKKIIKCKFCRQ

5-HT1E = 5-HT1E (Homo sapiens, UniProt P28566); test: NIMH PDSP radioligand competition binding, 5-HT1E
Chain of 5-HT1E (P28566 whole entry): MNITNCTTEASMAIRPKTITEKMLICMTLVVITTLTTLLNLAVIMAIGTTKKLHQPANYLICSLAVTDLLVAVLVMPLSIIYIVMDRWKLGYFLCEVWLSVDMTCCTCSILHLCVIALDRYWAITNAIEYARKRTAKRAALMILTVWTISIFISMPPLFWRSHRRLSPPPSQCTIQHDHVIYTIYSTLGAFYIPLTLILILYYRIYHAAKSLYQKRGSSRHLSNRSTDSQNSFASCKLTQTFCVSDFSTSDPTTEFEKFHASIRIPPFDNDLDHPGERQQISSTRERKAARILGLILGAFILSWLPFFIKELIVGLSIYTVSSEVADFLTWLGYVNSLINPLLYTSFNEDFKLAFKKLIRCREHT

5-HT6 = 5-HT6 (Homo sapiens, UniProt P50406); test: NIMH PDSP radioligand competition binding, 5-HT6
Chain of 5-HT6 (P50406 whole entry): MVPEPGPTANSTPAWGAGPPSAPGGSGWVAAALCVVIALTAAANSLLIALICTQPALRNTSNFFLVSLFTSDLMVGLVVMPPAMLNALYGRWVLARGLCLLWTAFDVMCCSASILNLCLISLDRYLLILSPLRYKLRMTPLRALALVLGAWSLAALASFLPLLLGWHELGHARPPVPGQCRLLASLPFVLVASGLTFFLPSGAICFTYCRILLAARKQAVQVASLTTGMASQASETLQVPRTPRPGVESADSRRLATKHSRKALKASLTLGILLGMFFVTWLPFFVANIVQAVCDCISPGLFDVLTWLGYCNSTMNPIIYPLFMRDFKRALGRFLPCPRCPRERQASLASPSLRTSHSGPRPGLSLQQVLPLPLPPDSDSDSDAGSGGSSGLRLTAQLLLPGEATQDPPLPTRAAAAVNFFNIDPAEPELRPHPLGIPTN

[1] = target: serotonin transporter (SERT) (Homo sapiens, UniProt P31645); test: NIMH PDSP radioligand competition binding, SERT
Chain of serotonin transporter (SERT) (P31645 whole entry): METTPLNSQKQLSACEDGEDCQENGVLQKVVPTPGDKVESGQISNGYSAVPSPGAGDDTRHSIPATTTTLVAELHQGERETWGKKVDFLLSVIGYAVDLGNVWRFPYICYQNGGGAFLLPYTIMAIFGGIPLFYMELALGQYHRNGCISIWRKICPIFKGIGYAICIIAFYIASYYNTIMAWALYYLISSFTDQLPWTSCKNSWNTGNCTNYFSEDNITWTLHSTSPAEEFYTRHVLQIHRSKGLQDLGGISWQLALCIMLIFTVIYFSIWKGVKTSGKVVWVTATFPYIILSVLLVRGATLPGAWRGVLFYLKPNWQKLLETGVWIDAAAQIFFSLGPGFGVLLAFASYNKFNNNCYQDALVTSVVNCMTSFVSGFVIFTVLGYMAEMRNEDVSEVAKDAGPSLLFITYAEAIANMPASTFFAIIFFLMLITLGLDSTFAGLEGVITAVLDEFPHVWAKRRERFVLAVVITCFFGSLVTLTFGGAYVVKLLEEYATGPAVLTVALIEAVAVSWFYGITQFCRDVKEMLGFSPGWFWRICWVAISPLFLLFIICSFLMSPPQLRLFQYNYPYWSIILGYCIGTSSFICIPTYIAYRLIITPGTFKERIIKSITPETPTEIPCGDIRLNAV

α1B = target: T2, α1B (Homo sapiens, UniProt P35368); test: NIMH PDSP radioligand competition binding, α1B
T2 sequence (P35368 1-520): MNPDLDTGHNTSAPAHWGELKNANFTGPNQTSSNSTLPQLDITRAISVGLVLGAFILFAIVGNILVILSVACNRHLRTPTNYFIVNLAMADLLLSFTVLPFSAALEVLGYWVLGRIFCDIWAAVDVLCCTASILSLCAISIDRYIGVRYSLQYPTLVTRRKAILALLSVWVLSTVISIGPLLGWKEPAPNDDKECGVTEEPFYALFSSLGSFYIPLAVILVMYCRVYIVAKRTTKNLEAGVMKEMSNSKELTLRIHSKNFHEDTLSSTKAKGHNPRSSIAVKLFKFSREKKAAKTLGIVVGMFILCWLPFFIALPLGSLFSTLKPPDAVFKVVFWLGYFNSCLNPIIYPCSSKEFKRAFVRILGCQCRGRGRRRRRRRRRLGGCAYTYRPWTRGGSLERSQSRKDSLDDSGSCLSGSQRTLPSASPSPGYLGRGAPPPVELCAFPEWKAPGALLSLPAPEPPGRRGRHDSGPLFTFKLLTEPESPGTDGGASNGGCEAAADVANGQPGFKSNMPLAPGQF

α2B = target: T3, α2B (Homo sapiens, UniProt P18089); test: NIMH PDSP radioligand competition binding, α2B
T3 sequence (P18089 1-450): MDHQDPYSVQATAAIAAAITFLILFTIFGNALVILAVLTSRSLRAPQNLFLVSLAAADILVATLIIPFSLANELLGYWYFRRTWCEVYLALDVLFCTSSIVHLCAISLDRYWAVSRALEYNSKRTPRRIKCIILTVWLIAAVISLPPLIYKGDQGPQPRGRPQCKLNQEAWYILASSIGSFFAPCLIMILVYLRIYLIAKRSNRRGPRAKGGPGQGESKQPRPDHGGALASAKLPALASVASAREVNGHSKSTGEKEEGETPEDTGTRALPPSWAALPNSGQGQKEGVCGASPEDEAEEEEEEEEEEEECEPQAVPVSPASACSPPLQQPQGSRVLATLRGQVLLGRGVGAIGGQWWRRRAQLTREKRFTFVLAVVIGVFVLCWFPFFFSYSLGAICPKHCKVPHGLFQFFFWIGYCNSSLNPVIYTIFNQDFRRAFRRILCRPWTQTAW

α2C = target: T4, α2C (Homo sapiens, UniProt P18825); test: NIMH PDSP radioligand competition binding, α2C
T4 sequence (P18825 1-462): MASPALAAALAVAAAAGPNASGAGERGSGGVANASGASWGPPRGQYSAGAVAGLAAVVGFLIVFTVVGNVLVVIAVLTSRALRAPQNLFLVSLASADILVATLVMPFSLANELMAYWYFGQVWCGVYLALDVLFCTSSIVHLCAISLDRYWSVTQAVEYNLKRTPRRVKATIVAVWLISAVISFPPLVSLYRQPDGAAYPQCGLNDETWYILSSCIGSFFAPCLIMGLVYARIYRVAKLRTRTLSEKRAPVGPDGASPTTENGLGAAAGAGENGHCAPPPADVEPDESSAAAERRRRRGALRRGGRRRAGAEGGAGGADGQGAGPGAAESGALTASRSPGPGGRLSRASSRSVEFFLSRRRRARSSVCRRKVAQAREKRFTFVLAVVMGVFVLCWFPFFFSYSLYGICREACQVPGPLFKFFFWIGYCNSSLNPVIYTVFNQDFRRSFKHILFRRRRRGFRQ

D4 = target: T5, D4 (Homo sapiens, UniProt P21917); test: NIMH PDSP radioligand competition binding, D4
T5 sequence (P21917 1-419): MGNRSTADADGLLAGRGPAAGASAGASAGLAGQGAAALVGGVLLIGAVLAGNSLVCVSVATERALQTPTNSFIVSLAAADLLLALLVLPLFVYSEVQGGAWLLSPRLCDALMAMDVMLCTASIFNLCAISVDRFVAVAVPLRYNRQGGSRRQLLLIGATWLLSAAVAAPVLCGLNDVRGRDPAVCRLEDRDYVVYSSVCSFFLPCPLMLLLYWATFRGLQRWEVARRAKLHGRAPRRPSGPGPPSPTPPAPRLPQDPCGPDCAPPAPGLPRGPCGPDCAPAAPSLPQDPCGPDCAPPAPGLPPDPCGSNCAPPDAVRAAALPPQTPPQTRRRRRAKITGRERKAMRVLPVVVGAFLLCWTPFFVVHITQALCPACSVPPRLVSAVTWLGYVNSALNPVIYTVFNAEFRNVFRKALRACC

H2 = H2 (Homo sapiens, UniProt P25021); test: NIMH PDSP radioligand competition binding, H2
Chain of H2 (P25021 whole entry): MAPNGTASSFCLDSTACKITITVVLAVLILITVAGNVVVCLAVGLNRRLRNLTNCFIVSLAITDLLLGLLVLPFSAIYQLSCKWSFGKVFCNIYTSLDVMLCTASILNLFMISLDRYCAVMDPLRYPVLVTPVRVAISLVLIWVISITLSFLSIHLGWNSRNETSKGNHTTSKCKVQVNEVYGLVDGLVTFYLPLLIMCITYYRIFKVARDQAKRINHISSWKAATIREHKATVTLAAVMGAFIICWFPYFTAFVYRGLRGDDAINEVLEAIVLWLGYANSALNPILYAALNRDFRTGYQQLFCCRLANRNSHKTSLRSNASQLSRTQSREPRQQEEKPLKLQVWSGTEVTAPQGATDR

H3 = H3 (Cavia porcellus, UniProt Q9JI35); test: NIMH PDSP radioligand competition binding, H3; parameters: species or system Guinea pig
Chain of H3 (Q9JI35 whole entry): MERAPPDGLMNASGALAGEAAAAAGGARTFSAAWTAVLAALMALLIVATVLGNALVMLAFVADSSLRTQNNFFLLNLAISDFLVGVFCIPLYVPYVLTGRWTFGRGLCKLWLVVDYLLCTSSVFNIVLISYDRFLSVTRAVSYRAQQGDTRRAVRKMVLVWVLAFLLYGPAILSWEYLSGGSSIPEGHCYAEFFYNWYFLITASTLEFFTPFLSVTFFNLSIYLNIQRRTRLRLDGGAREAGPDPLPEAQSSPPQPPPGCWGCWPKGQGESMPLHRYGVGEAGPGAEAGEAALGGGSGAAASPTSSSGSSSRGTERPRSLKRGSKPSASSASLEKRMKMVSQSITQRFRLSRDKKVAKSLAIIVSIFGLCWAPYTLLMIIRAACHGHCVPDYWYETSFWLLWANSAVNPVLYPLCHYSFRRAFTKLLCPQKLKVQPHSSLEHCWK

σ2 = target: T6, σ2 (Rattus norvegicus, UniProt Q5U3Y7); test: NIMH PDSP radioligand competition binding, σ2
T6 sequence (Q5U3Y7 1-176): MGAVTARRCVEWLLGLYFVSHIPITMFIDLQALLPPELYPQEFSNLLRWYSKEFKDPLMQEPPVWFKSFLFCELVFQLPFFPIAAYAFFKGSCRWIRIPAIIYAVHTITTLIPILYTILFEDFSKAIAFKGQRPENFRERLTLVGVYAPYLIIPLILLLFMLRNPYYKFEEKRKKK

[2] = Binding Affinity (Ki, nM), [3H]N-methylspiperone, cloned human receptor
[3] = Binding Affinity (Ki, nM), [3H]tiotidine, cloned human receptor

SMILES	Ki (5-HT1A) [nM]	Ki (5-HT1E) [nM]	Ki (5-HT6) [nM]	Ki [1] [nM]	Ki (α1B) [nM]	Ki (α2B) [nM]	Ki (α2C) [nM]	Ki (D4; [2]) [nM]	Ki (H2; [3]) [nM]	Ki (H3) [nM]	Ki (σ2) [nM]	SERT affinity, fold reduction by 2-methylation [1] [fold]	displacement at 10,000 nM ([1]; SERT, [3H]citalopram, at 10,000 nM) [%]	Ki (D4; Ki value, bound stated) [nM]	Ki (H2; Ki value, bound stated) [nM]
C=CCN(CC=C)CCc1c[nH]c2cccc(OC(C)=O)c12 [4-AcO-DALT, 4-acetoxy-N,N-diallyltryptamine]	383	467	1790	1090	> 10000	170	748	> 10000	> 10000	> 10000	> 10000	–	–	–	–
C=CCN(CC=C)CCc1c(C)[nH]c2ccc(F)cc12 [5-F-2-Me-DALT, 5-fluoro-2-methyl-N,N-diallyltryptamine]	318	1270	168	983	> 10000	108	184	> 10000	> 10000	1400	396	~30	–	–	–
C=CCN(CC=C)CCc1c[nH]c2cccc(O)c12 [4-HO-DALT, 4-hydroxy-N,N-diallyltryptamine]	319	238	213	5210	> 10000	> 10000	> 10000	> 10000	> 10000	> 10000	> 10000	–	–	–	–
C=CCN(CC=C)CCc1c[nH]c2c(CC)cccc12 [7-Et-DALT, 7-ethyl-N,N-diallyltryptamine]	1010	> 10000	> 10000	795	> 10000	489	682	> 10000	> 10000	> 10000	136	–	–	–	–
C=CCN(CC=C)CCc1c(C)[nH]c2ccc(OC)cc12 [5-MeO-2-Me-DALT, 5-methoxy-2-methyl-N,N-diallyltryptamine]	267	1590	206	> 10000	> 10000	335	888	> 10000	> 10000	1130	1240	–	< 50	–	–
C=CCN(CC=C)CCc1c(-c2ccccc2)[nH]c2ccccc12 [2-Ph-DALT, 2-phenyl-N,N-diallyltryptamine]	402	> 10000	68	> 10000	904	78	159	1000	367	> 10000	717	–	–	< 10000	< 10000
